Measurements published in paper PMC4887716 (Iranian Journal of Basic Medical Sciences, 2016).
Like-named read-outs stand apart in the source and are kept apart here.

Assays:
[1] = cited from earlier work
Caco-2 cells = assay: In vitro cytotoxicity study; type: cell-based, human; conditions: clemastine 0.01-10 µM, 24 hr incubation
P-gp [2] = assay: In situ single pass intestinal perfusion; conditions: for increase of digoxin Peff: in situ SPIP
P-gp [3] = conditions: cited from earlier work
P-gp [4] = conditions: MDR-MDCK cells; cited from earlier work
[5] = cited from earlier work; remark: listed apart in the source

Row | Peff of digoxin alone (control) (P-gp [2]; 20 µM digoxin, rat jejunum SPIP) | SMILES | elimination half-life [1] | therapeutic level in blood plasma [1] | therapeutic level in blood plasma ([1]; converted from ng/ml) | cytotoxic effect on Caco-2 cells (cell viability, MTT) (Caco-2 cells) | increase of digoxin Peff (P-gp [2]; 0.5 µM clemastine) | increase of digoxin Peff (P-gp [2]; 10 µM clemastine) | P-gp substrate classification (P-gp [3]) | P-gp substrate status from efflux in presence of cyclosporine-A (P-gp [4]) | solubility in water [5]
1 |  | CN1CCC[C@@H]1CCO[C@](C)(c1ccccc1)c1ccc(Cl)cc1 [clemastine] | approximately 21 hr | 0.7 to 2 ng/mL | 1.5 to 4.4 nM | no cytotoxic effect | about 65% | ~165% | non-P-gp-substrate | clemastine is a P-gp substrate | very slightly soluble in water
2 | 3.4±0.8 ×10^-5cm/s | C[C@H]1O[C@@H](O[C@H]2[C@@H](O)C[C@H](O[C@H]3[C@@H](O)C[C@H](O[C@H]4CC[C@@]5(C)[C@H](CC[C@@H]6[C@@H]5C[C@@H](O)[C@]5(C)[C@@H](C7=CC(=O)OC7)CC[C@]65O)C4)O[C@@H]3C)O[C@@H]2C)C[C@H](O)[C@@H]1O [digoxin] |  |  |  |  |  |  |  |  | 
